From PMC7576493, “Novel ANO1 Inhibitor from Mallotus apelta Extract Exerts Anticancer Activity through Downregulation of ANO1” (International Journal of Molecular Sciences, 2020)

What was measured:
Anoctamin1 (ANO1) [1] = molecular target: T1, Anoctamin1 (ANO1) (Homo sapiens, UniProt Q5XXA6); assay: apical membrane (short-circuit) current in FRT cells expressing human ANO1; also YFP quenching assay; format: cell-based
T1 sequence (Q5XXA6 1-986): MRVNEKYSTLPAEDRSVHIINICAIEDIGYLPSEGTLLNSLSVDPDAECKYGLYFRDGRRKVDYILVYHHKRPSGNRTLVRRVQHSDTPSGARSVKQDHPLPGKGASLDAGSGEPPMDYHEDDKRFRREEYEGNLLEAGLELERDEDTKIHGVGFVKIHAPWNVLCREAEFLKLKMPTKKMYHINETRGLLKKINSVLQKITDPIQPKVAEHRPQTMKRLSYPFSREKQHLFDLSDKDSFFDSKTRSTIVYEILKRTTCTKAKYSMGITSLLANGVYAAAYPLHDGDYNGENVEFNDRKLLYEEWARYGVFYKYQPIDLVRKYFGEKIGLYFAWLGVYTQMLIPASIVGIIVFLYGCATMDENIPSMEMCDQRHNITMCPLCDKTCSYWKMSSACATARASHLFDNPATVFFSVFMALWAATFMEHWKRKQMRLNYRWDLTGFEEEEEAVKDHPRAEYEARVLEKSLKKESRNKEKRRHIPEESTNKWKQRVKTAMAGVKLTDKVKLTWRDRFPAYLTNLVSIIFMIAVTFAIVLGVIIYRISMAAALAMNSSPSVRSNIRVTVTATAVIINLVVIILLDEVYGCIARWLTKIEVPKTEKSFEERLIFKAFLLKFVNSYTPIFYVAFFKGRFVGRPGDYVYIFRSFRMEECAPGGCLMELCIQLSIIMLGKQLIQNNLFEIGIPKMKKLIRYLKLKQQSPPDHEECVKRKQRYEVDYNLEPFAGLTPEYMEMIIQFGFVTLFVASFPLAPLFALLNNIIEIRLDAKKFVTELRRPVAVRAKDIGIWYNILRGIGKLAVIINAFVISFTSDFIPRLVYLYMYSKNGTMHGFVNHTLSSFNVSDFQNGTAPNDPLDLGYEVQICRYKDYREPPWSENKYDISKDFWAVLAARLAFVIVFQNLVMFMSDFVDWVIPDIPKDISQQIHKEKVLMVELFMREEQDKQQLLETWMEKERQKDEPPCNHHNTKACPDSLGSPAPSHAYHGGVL

Anoctamin1 (ANO1) [2] = molecular target: T1, Anoctamin1 (ANO1); assay: YFP (F46L/H148Q/I152L) quenching iodide influx assay in FRT cells expressing human ANO1; […] inhibition at […]; format: cell-based

| Structure (SMILES) | IC50 (Anoctamin1 (ANO1) [1]) [nM] | inhibition at 25 µM (Anoctamin1 (ANO1) [2]) [%] |
| --- | --- | --- |
| COc1cc2c(c(OC)c1C(=O)CC(O)c1ccccc1)C=CC(C)(C)O2 (racemic) [compound 2, Ani-D2] | 2640 | – |
| COc1cc2c(c(OC)c1C(=O)/C=C/c1ccccc1)C=CC(C)(C)O2 [compound 1, Ani-D1] | – | > 99 |
